Measurements from patent US8455510B2.
Entries after “also recorded” stand apart in the source; their conditions may differ. Like-named read-outs stand apart in the source and are kept apart here.

Columns and labels:
[1] = tested on: human prostate cancer PC-3 xenograft; test: PC-3 xenograft on nude mice; settings: 1-5 × 3.5 w; for TV (mm3) d0: baseline
PC-3 cells = test: SRB growth inhibition, PC-3 cells; format: cell-based, human; settings: SRB method, 72 hours, different concentrations, FIG. 1
Description: (§1) After Rh30 cells were treated by the compound at different concentrations, the cell survival rate was detected by SRB method.
(§2) The above various kinds of tumor cells in logarithmic growth phase were inoculated on a 96-well plate with 90 μl per well, and allowed to attach for 24 hours, followed by the addition of the compound with 10 μl per well. For each concentration, the test was carried out in triplicate wells, and included a control well containing the aqueous medium of normal saline at the corresponding concentration and a blank well without cells for zeroing. The tumor cells were cultured for 72 hours at 37° C. and 5% CO2, and then the culture medium was removed. The cells were fixed with cold 10% TCA (trichloroacetic acid) at 4° C. for 1 hour, then washed with distilled water for 5 times, and dried at room temperature, followed by addition of a SRB (Sigma) solution (4 mg/ml) in 1% glacial acetic acid at 100 μl per well. The cells were stained at room temperature for 15 min, and the supernatant was removed. The plate was washed by 1% acetic acid for 5 times and dried at room temperature. Finally, Tris-solution was added at 150 μl per well, and the A value was measured at a wavelength of 520 nm on an ELISA Reader.

[2] = tested on: phosphorylation levels of p70S6K and 4E-BP1; test: Western blotting of mTOR downstream substrate phosphorylation in tumor cells; format: cell-based, human; settings: Rh30, PC-3, MCF-7 and CAKI-1 cells, 1 hour treatment, IGF stimulation, FIG. 2
Description: Cells were inoculated on a 12-well plate with given densities and allowed to attach overnight. Then the medium was changed to a serum-free one. After starved for 24 hours, the cells were treated with the compound at corresponding concentrations for 1 hour, and then stimulated by IGF for 10 min. The cells were collected, and the phosphorylation levels of p70S6K and 4E-BP1 in the cells were measured by using Western blotting.

MCF-7 cells = test: SRB growth inhibition, MCF-7 cells; format: cell-based, human; settings: SRB method, 72 hours, different concentrations, FIG. 1
Description: as §1, §2

CAKI-1 cells = test: SRB growth inhibition, CAKI-1 cells; format: cell-based, human; settings: SRB method, 72 hours, different concentrations, FIG. 1
Description: as §1, §2

FKBP-12 protein = target: T1, FKBP-12 protein (Homo sapiens, UniProt P62942); test: SPR (surface plasma resonance) binding with FKBP-12
T1 construct: purchased sigma Co
T1 sequence (P62942 whole entry, species assumed): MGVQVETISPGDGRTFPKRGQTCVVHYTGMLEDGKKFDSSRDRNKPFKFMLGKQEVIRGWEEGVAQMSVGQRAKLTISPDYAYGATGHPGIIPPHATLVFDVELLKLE
Description: (1) FKBP-12 protein was purchased from sigma Co.
(2) HBS-EP buffer solution (10 mM Hepes, 150 mM NaCl, 3.4 mM EDTA, 0.005% (v/v) surfactant P20, pH 7.4)
(3) Activating reagents EDC and NHS, and blocking reagents Ethanolamine, etc., were purchased from BIACORE AB Co. (Uppsala, Sweden).
(4) BIAcore 3000 and CM5 chip were purchased from BIACORE AB Co. (Uppsala, Sweden).
(2) […] was coupled to the FC2 channel on CM5 chip by using the Wizard for amino-coupling in Biacore 3000 controlling soft. 3.3 g/L of FKBP-12 protein was diluted with 10 mM NaAC (pH 4.6) to 66 μg/ml. The surface of the chip was washed by injecting a mixture of 0.1M1-(3-dimethylaminopropyl)-3-ethylcarbodiimide hydrochloride (EDCI) and 0.1M N-hydroxysuccinimide (NHS) (1:1) at a flow rate of 20 μL/min for 7 min. After that, the protein solution was injected, and then a 1M cholamine (pH 8.5) solution was fed for 7 min to block the activated surface of the chip. Preliminary screening and pharmacokinetic tests on the compounds
The binding abilities of small molecular compounds with FKBP-12 protein were evaluated by SPR (surface plasma resonance). The stock solution of the compound was 10 mM, and was diluted by HBS-EP buffer solution at given ratios. Pharmacokinetic tests were carried out by the Wizard for kinetic analysis in Biacore 3000 controlling soft. The resulted data were fitted by 1:1 Langmuir binding model or stability model in Biacore 3000 analytical soft to obtain the exact kinetic and thermodynamic constants.

Rh30 cells = test: SRB growth inhibition, Rh30 cells; format: cell-based, human; settings: SRB method, 72 hours, different concentrations, FIG. 1
Description: as §1, §2

[3] = tested on: human rhabdomyosarcoma RH-30 xenograft; test: RH-30 xenograft on nude mice; settings: for TV (mm^3) d0: baseline;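 for all read-outs here: male BALB/cA nude mice with subcutaneous RH-30 tumors, oral dosing versus solvent-fed controls, caliper tumor volume, RTV relative to grouping day, T/C as treated RTV over control RTV ×100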
Description: Animals: BALB/cA nude mice, male, 40-45 days old, body weight: 21±2 g, provided by Shanghai Institute of Materia Medica, Chinese Academy of Sciences. License No.: SCXK (Shanghai) 2004-0002. Animal number in each group: 6 in negative control group, and 6 in administration group.
The amount of inoculated cells was 5×10^6. After the xenograft was formed by inoculation, it was used after passed for 3 generations in nude mice.

T Cells = test: Immunosuppressive activity assay: T cells inhibitory activity; format: cell-based; settings: T-cell; Table 10
HL-60 cells = test: SRB growth inhibition, HL-60 cells; format: cell-based, human; settings: SRB method, 72 hours, different concentrations, FIG. 1
Description: as §1, §2

[4] = Immunosuppressive activity assay: cytotoxicity; format: cell-based
[5] = Table 2, 5 mg/kg p.o, 1-5 × 3 w
[6] = Table 2, 10 mg/kg p.o, 1-5 × 3 w

Q: Which results are given for `CO[C@H]1CC2CC[C@@H](C)[C@@](O)(O2)C(=O)C(=O)N2CCCCC2C(=O)O[C@H]([C@H](C)C[C@@H]2CC[C@@H](OC(=O)OCC(O)CO)[C@H](OC)C2)CC(=O)[C@H](C)/C=C(\C)[C@@H](OC(=O)OCC(O)CO)[C@@H](OC)C(=O)[C@H](C)C[C@H](C)/C=C/C=C/C=C/1C` (stereo partly shown) [Y50]?
A: Body Weight (g) end ([1]; Table 3, 2.5 mg/kg p.o): 17.7 g; Body Weight (g) start ([1]; Table 3, 2.5 mg/kg p.o): 19.7 g; RTV ([1]; Table 3, 2.5 mg/kg p.o): 2.6 ± 1.1; T/C (%) ([1]; Table 3, 2.5 mg/kg p.o): 40.2%; TV (mm3) d21 ([1]; Table 3, 2.5 mg/kg p.o): 273 ± 163 mm3; TV (mm3) d0 ([1]; Table 3, 2.5 mg/kg p.o): 103 ± 35 mm3; Body Weight (g) end ([1]; Table 3, 5 mg/kg p.o): 22.3 g; Body Weight (g) start ([1]; Table 3, 5 mg/kg p.o): 22.7 g; RTV ([1]; Table 3, 5 mg/kg p.o): 0.65 ± 0.4; T/C (%) ([1]; Table 3, 5 mg/kg p.o): 10.0%; TV (mm3) d21 ([1]; Table 3, 5 mg/kg p.o): 70 ± 59 mm3; TV (mm3) d0 ([1]; Table 3, 5 mg/kg p.o): 98 ± 42 mm3; inhibitory effects on the growth of PC-3 cells (PC-3 cells): comparable to those of rapamycin; inhibition of mTOR-catalyzed phosphorylation of p70S6K and 4E-BP1 [2]: concentration-dependently suppress; also recorded: comparable inhibitory effects to those of rapamycin; inhibitory effects on the growth of MCF-7 cells (MCF-7 cells): comparable to those of rapamycin; inhibitory effects on the growth of CAKI-1 cells (CAKI-1 cells): comparable to those of rapamycin; binding with FKBP12 (FKBP-12 protein): concentration-dependently bind; Kd (FKBP-12 protein; FKBP12): 0.00026 µM; koff (FKBP-12 protein; FKBP12): 0.14 × 10^−3 S^−1; kon (FKBP-12 protein; FKBP12): 5.24 × 10^5 M^−1S^−1; R^U (Response Unit) compared with rapamycin (FKBP-12 protein; at the same concentration): higher; concentration to reach the saturation state for the binding with FKBP12 (FKBP-12 protein; compared with rapamycin): lower than that for rapamycin; inhibitory effects on the growth of Rh30 cells (Rh30 cells): comparable to those of rapamycin; Body Weight (g) end [3, 5]: 25.8 g; Body Weight (g) start [3, 5]: 22.2 g; RTV [3, 5]: 2.9 ± 0.5; T/C (%) [3, 5]: 32.5%; TV (mm^3) d21 [3, 5]: 380 ± 146 mm^3; TV (mm^3) d0 [3, 5]: 132 ± 47 mm^3; Body Weight (g) end [3, 6]: 26.0 g; Body Weight (g) start [3, 6]: 23.0 g; RTV [3, 6]: 3.5 ± 1.1; T/C (%) [3, 6]: 32.9%; TV (mm^3) d21 [3, 6]: 415 ± 71 mm^3; TV (mm^3) d0 [3, 6]: 130 ± 50 mm^3; Body Weight (g) end ([3]; Table 4, 5 mg/kg po, 1-5/2 w): 21.5 g; Body Weight (g) start ([3]; Table 4, 5 mg/kg po, 1-5/2 w): 20.0 g; RTV ([3]; Table 4, 5 mg/kg po, 1-5/2 w): 2.0 ± 0.5; T/C (%) ([3]; Table 4, 5 mg/kg po, 1-5/2 w): 46.6%; TV (mm^3) d14 ([3]; Table 4, 5 mg/kg po, 1-5/2 w): 323 ± 124 mm^3; TV (mm^3) d0 ([3]; Table 4, 5 mg/kg po, 1-5/2 w): 160 ± 47 mm^3; IC50 (T Cells): 9.1 µM; inhibitory effects on the growth of HL-60 cells (HL-60 cells): comparable to those of rapamycin; Safety Index CC50/IC50 ([4]; Table 10): >10.9; CC50 ([4]; Table 10, value beyond the >100 μM bound, read-out: Cytotoxicity CC50, value in brackets): 7590 µM; CC50 ([4]; Table 10, read-out: Cytotoxicity CC50): > 100 µM
